For nine compounds, GI50 and TGI results are on record in PubChem BioAssay (NCI).

Where “and” joins values, the source holds several entries; their conditions need not be identical. Equal entries are not always repeated.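 Dose response: 5 concentrations. Exposure: 48 h. Format: 96-well plates. Endpoint: linear interpolation; highest concentration if not reached. Abbreviation: GI50, concentration required for 50% inhibition of growth. TGI is the concentration that stops growth completely.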 Bounds are passed on as bounds.

Some test systems named below: A549 NSCLC; ACHN renal; K-562 leukemia; KM12 colon; M14 melanoma; SF-295 CNS; SK-MEL-28 melanoma; TK-10 renal.
Test in all cases: growth of human tumour cells (NCI), 48 h

For `CN1CCN(c2nc(NCCCCNc3ccnc4cc(Cl)ccc34)c3ccccc3n2)CC1`, the GI50 was 5.19 µM in the assay on A549 NSCLC; 2.52 µM in the assay on ACHN renal; 2.53 µM in the assay on K-562 leukemia; 8.25 µM with KM12 colon; 1.83 µM with M14 melanoma; 1.84 µM in the assay with SF-295 CNS. The GI50 in the assay with SK-MEL-28 melanoma and with TK-10 renal was 1.85 µM in each case. In addition, the TGI with A549 NSCLC is 20.5 µM; with ACHN renal, 7.32 µM; in the assay with K-562 leukemia, 11.8 µM; in the assay with KM12 colon it was 25.1 µM; with M14 melanoma, 3.47 µM; in the assay with SF-295 CNS, 3.73 µM. Besides, the TGI stood at 3.57 µM in the assay with SK-MEL-28 melanoma and 4.69 µM in the assay on TK-10 renal.

In the case of `COc1ccn2c(C(C)=O)cc(C(=O)c3ccc4c(c3)Sc3ccccc3N4)c2c1`, the GI50 was 0.122 µM in the assay with A549 NSCLC; 0.145 µM with ACHN renal; 0.0643 µM with K-562 leukemia; 0.0874 µM in the assay on KM12 colon; 0.0853 µM in the assay on M14 melanoma; 0.884 µM in the assay with SK-MEL-28 melanoma. In the assay on TK-10 renal, the GI50 was 0.34 µM. Further, the TGI was > 100 µM in the assay on A549 NSCLC; > 100 µM in the assay on ACHN renal; > 100 µM with K-562 leukemia; > 27.3 µM with KM12 colon; > 100 µM in the assay on M14 melanoma; > 100 µM in the assay on SK-MEL-28 melanoma. For the same compound, the TGI in the assay on TK-10 renal was > 100 µM.

Take `NC(=NC1CCCCCCC1)c1ccc(N2CCN(c3ccc(C(N)=NC4CCCCCCC4)cc3)CC2)cc1`: the GI50 in the assay with A549 NSCLC was 4.25 µM; in the assay with ACHN renal, 22.7 µM; in the assay with K-562 leukemia it was 35.4 µM; in the assay with KM12 colon, 5.3 µM; in the assay with M14 melanoma, 30.8 µM; in the assay with SF-295 CNS, 2.04 µM. The GI50 in the assay with SK-MEL-28 melanoma is 6.75 µM; in the assay with TK-10 renal, 10.9 µM. The TGI with A549 NSCLC is > 100 µM; in the assay with ACHN renal it was > 100 µM; with K-562 leukemia, > 100 µM; in the assay on KM12 colon it was 19.1 µM; in the assay with M14 melanoma, > 100 µM; in the assay with SF-295 CNS, 6.09 µM. In addition, the TGI is 22.8 µM with SK-MEL-28 melanoma and 34.2 µM in the assay on TK-10 renal.

As for `O=C1/C(=C/c2ccccc2F)CNC/C1=C\c1ccccc1F`, the GI50 in the assay on A549 NSCLC was 1.81 µM and 1.27 µM; with ACHN renal it was 4.86 µM and 0.779 µM; with K-562 leukemia, 0.27 µM and 0.341 µM; in the assay with KM12 colon it was 0.189 µM and 0.197 µM; with M14 melanoma, 1.16 µM and 1.2 µM; in the assay with SF-295 CNS, 0.707 µM and 0.531 µM. For the same compound, the GI50 with SK-MEL-28 melanoma was 2.02 µM and 1.79 µM; in the assay on TK-10 renal, 2.92 µM and 1.51 µM. In addition, the TGI with A549 NSCLC was 9.35 µM and 5.59 µM; in the assay with ACHN renal, 8.55 µM and 2.58 µM; in the assay with K-562 leukemia, 2.27 µM and 2.63 µM; in the assay with KM12 colon, 0.519 µM and 0.39 µM; in the assay on M14 melanoma, 3.73 µM and 2.84 µM; with SF-295 CNS, 3.5 µM and 1.71 µM. In addition, the TGI is 4.7 µM and 3.63 µM in the assay with SK-MEL-28 melanoma; 8.48 µM and 3.5 µM with TK-10 renal.

In the case of `COc1cc2c3c(n(CCCNCC(OC)OC)c(=O)c2cc1OC)-c1cc2c(cc1C3=O)OCO2`, the GI50 is 11.2 µM in the assay on A549 NSCLC; 5.34 µM in the assay on ACHN renal; 0.91 µM in the assay with K-562 leukemia; 2.14 µM in the assay with KM12 colon; 0.345 µM with M14 melanoma; 0.303 µM with SF-295 CNS. Further, the values for the GI50 in the assay on SK-MEL-28 melanoma and in the assay on TK-10 renal were 18.4 µM and 11.9 µM, respectively. Moreover, the TGI in the assay with A549 NSCLC is 37.9 µM; in the assay on ACHN renal, > 37.4 µM; in the assay on K-562 leukemia it was > 46.8 µM; with KM12 colon, 34.6 µM; with M14 melanoma, > 37.2 µM; in the assay with SF-295 CNS, 49.4 µM. Besides, the TGI in the assay with SK-MEL-28 melanoma is 36.3 µM; with TK-10 renal, 47.8 µM.

For the compound `COC(=O)c1cc(-c2cc(OC)c(OC)c(OC)c2)[nH]c1N/N=C/c1c(Cl)cccc1Cl`, the GI50 in the assay with A549 NSCLC was 4.97 µM; in the assay on ACHN renal it was 0.963 µM; with KM12 colon, 0.801 µM; in the assay with M14 melanoma, 8.6 µM; with SF-295 CNS, 1.01 µM; in the assay with SK-MEL-28 melanoma it was 2.8 µM. In addition, the GI50 in the assay on TK-10 renal was 0.528 µM. In addition, the TGI in the assay on A549 NSCLC is 23.3 µM; in the assay on ACHN renal, 9.17 µM; with K-562 leukemia it was > 100 µM; with KM12 colon, 6.94 µM; in the assay on M14 melanoma, 40.1 µM; in the assay on SF-295 CNS, 22.8 µM. Also, the TGI in the assay with SK-MEL-28 melanoma came out at 12.4 µM; in the assay on TK-10 renal, 2.68 µM.

For the compound `CC1=CCC(OC(=O)C(C)(C)CCC(O)(C(=O)OC2(C(C)C)CCC3(C)OC3C2)C(C)C)(C(C)C)CC1` (stereo unspecified), the GI50 in the assay with A549 NSCLC was 0.279 µM; in the assay with ACHN renal it was 0.107 µM; in the assay on KM12 colon, 0.793 µM; with M14 melanoma it was 0.654 µM; with SF-295 CNS, 0.69 µM; with SK-MEL-28 melanoma it was 0.993 µM. Moreover, in the assay with TK-10 renal, the GI50 was 0.532 µM. In addition, the TGI with A549 NSCLC amounted to 1.16 µM; in the assay on ACHN renal, 0.311 µM; with KM12 colon, 1.6 µM; with M14 melanoma, 1.46 µM; in the assay with SF-295 CNS, 1.39 µM; with SK-MEL-28 melanoma it was 3.01 µM. In addition, the TGI in the assay on TK-10 renal is 1.43 µM.

Take `CN(CC(=O)O)c1ccc(/C=C/c2ccnc3ccccc23)cc1`: the TGI in the assay with A549 NSCLC was 61.4 µM; in the assay on ACHN renal, > 100 µM; in the assay with K-562 leukemia it was > 100 µM; in the assay on KM12 colon, 41.2 µM; in the assay with M14 melanoma it was 67.7 µM; in the assay on SF-295 CNS, 54.5 µM. Further, the TGI in the assay with SK-MEL-28 melanoma was > 100 µM; in the assay with TK-10 renal, 47.7 µM.

Take `CCN(CCNc1ccc(C)c2sc3cc(Cl)ccc3c(=O)c12)CC(C)O` (stereo unspecified): the GI50 with A549 NSCLC is 1.85 µM; with ACHN renal it was 1.85 µM; in the assay with K-562 leukemia, 1.82 µM; in the assay on KM12 colon it was 1.84 µM; with M14 melanoma, 1.75 µM; in the assay on SF-295 CNS, 1.67 µM. The figures for the GI50 with SK-MEL-28 melanoma and in the assay with TK-10 renal were 1.91 µM and 1.51 µM, respectively. In addition, the TGI was found to be 3.45 µM with A549 NSCLC; 3.48 µM in the assay with ACHN renal; 3.41 µM in the assay on K-562 leukemia; 3.88 µM with KM12 colon; 3.14 µM with M14 melanoma; 3.72 µM in the assay on SF-295 CNS. Also, the TGI in the assay with SK-MEL-28 melanoma stood at 3.4 µM; in the assay with TK-10 renal, 2.91 µM.
